Reference: patent US7312245B2 (priority 2001, dated 2007)
Where two headings read alike, the source gives them in different places.

Columns and labels:
Type in all cases: in vivo
Pyricularia oryzae [1] = conditions: spray application of wettable powder diluted to 500 ppm; rice Koshihikari 2-leaf stage; spray-inoculated with Pyricularia oryzae spores; examined after 7 days
Pyricularia oryzae [2] = conditions: granules applied to water surface at 3 kg/10 ares; rice Koshihikari; inoculated 30 days after application; lesions checked after 1 week
Pyricularia oryzae [3] = conditions: nursery box treated with granules 50 g per box; rice Koshihikari; inoculated 30 days after transplantation; lesions counted after 1 week

SMILES: Cc1ccc(C(=O)NCC(Cc2ccccc2)NC(=O)OC(C)C)cc1 (stereo not drawn) [compound 289]
- Grade of Effect (preventive value, rice blast controlling effect) (Pyricularia oryzae [1]): A (100%)
- Grade of Effect (preventive value, rice blast controlling effect) (Pyricularia oryzae [2]): A (From 80% to 100%)
- Grade of Effect (preventive value, rice blast controlling effect) (Pyricularia oryzae [3]): A (From 80% to 100%)

SMILES: Cc1ccc(C(=O)NCC(NC(=O)OCc2ccc(Cl)cc2)C(C)C)cc1 (stereo not drawn) [compound 1066]
- Grade of Effect (preventive value, rice blast controlling effect) (Pyricularia oryzae [1]): A (100%)
- Grade of Effect (preventive value, rice blast controlling effect) (Pyricularia oryzae [2]): A (From 80% to 100%)
- Grade of Effect (preventive value, rice blast controlling effect) (Pyricularia oryzae [3]): A (From 80% to 100%)

SMILES: CCc1ccc(C(=O)NCC(NC(=O)OC(C)C)C(C)C)cc1 (stereo not drawn) [compound 241]
- Grade of Effect (preventive value, rice blast controlling effect) (Pyricularia oryzae [1]): A (100%)
- Grade of Effect (preventive value, rice blast controlling effect) (Pyricularia oryzae [2]): A (From 80% to 100%)
- Grade of Effect (preventive value, rice blast controlling effect) (Pyricularia oryzae [3]): A (From 80% to 100%)

SMILES: CSCCOC(=O)NC(CNC(=O)c1ccc(C)cc1)C(C)C (stereo not drawn) [compound 1261]
- Grade of Effect (preventive value, rice blast controlling effect) (Pyricularia oryzae [1]): A (100%)
- Grade of Effect (preventive value, rice blast controlling effect) (Pyricularia oryzae [2]): A (From 80% to 100%)
- Grade of Effect (preventive value, rice blast controlling effect) (Pyricularia oryzae [3]): A (From 80% to 100%)

SMILES: CC(C)C(CNC(=O)c1ccc(Cl)cc1)NC(=O)OCCS(C)(=O)=O (stereo not drawn) [compound 1273]
- Grade of Effect (preventive value, rice blast controlling effect) (Pyricularia oryzae [1]): A (100%)
- Grade of Effect (preventive value, rice blast controlling effect) (Pyricularia oryzae [2]): A (From 80% to 100%)
- Grade of Effect (preventive value, rice blast controlling effect) (Pyricularia oryzae [3]): A (From 80% to 100%)

SMILES: Cc1ccccc1C(=O)NCC(NC(=O)OC(C)C)C(C)C (stereo not drawn) [compound 239]
- Grade of Effect (preventive value, rice blast controlling effect) (Pyricularia oryzae [1]): A (100%)
- Grade of Effect (preventive value, rice blast controlling effect) (Pyricularia oryzae [2]): A (From 80% to 100%)
- Grade of Effect (preventive value, rice blast controlling effect) (Pyricularia oryzae [3]): A (From 80% to 100%)

SMILES: Cc1ccc(C(=O)NCC(C)(NC(=O)OC(C)(C)C)C(C)C)cc1 (stereo not drawn) [compound 469]
- Grade of Effect (preventive value, rice blast controlling effect) (Pyricularia oryzae [1]): B (80% or more and less than 100%)
- Grade of Effect (preventive value, rice blast controlling effect) (Pyricularia oryzae [2]): B (50% or more and less than 80%)
- Grade of Effect (preventive value, rice blast controlling effect) (Pyricularia oryzae [3]): B (50% or more and less than 80%)

SMILES: CC(CNC(=O)c1ccc(C(C)(C)C)cc1)NC(=O)OC(C)C (stereo not drawn) [compound 216]
- Grade of Effect (preventive value, rice blast controlling effect) (Pyricularia oryzae [1]): A (100%)
- Grade of Effect (preventive value, rice blast controlling effect) (Pyricularia oryzae [2]): A (From 80% to 100%)
- Grade of Effect (preventive value, rice blast controlling effect) (Pyricularia oryzae [3]): A (From 80% to 100%)

SMILES: Cc1ccc(C(=O)NCC(NC(=O)OC(C)(C)C)c2ccccc2)cc1 (stereo not drawn) [compound 504, N-(t-butoxycarbonyl)-N′-(4-methylbenzoyl)-1-phenyl-1,2-ethylenediamine]
- Grade of Effect (preventive value, rice blast controlling effect) (Pyricularia oryzae [1]): B (80% or more and less than 100%)
- Grade of Effect (preventive value, rice blast controlling effect) (Pyricularia oryzae [2]): B (50% or more and less than 80%)
- Grade of Effect (preventive value, rice blast controlling effect) (Pyricularia oryzae [3]): B (50% or more and less than 80%)

SMILES: Cc1ccc(C(=O)NCC(NC(=O)OC(C)(C)C)C(C)C)cc1 (stereo not drawn) [compound 464]
- Grade of Effect (preventive value, rice blast controlling effect) (Pyricularia oryzae [1]): B (80% or more and less than 100%)
- Grade of Effect (preventive value, rice blast controlling effect) (Pyricularia oryzae [2]): B (50% or more and less than 80%)
- Grade of Effect (preventive value, rice blast controlling effect) (Pyricularia oryzae [3]): B (50% or more and less than 80%)

SMILES: COC(=O)NC(CNC(=O)c1ccccc1)c1ccccc1 (stereo not drawn) [compound 66, N-(methoxycarbonyl)-N′-benzoyl-1-phenyl-1,2-ethylenediamine]
- Grade of Effect (preventive value, rice blast controlling effect) (Pyricularia oryzae [1]): A (100%)
- Grade of Effect (preventive value, rice blast controlling effect) (Pyricularia oryzae [2]): A (From 80% to 100%)
- Grade of Effect (preventive value, rice blast controlling effect) (Pyricularia oryzae [3]): A (From 80% to 100%)
